Source: patent publication US20190030053A1, “COMPOSITION FOR INCREASING EXPRESSION OF PGC-1alpha” (BENEBIOSIS CO., LTD., priority 2016, published 2019)

Assays:
PGC-1α and related genes = test: Gene expression in brain and hippocampus of epilepsy/convulsion brain disease models; format: in vivo, rat; conditions: Noda epileptic rats, oral 0.1 mg/kg/day, 10 weeks
Source text: In order to investigate the gene expression changes by the treatment with SL (3′-SL & 6′-SL) compositions in epilepsy/convulsion brain disease models, 4-week-old normal SD rats and epilepsy/convulsion brain disease models (Noda epileptic rat, NER) were purchased from Central Lab Animal (Korea). Water was freely accessible, and a commercially available pellet feed (Dooyeul Biotech, Korea) was given for two weeks. At 6 weeks of age, the SD rats were divided into four groups (composed of 8 animals per group): Eight 6-week-old male SD rats (normal rats; initial body weight, average 176.3±13.3 g) treated with a normal diet were used for a control group. […]
Sialyllactose or DW was orally administered daily. […] The dietary intake and body weight change were measured every 5 days. […]
The gene expression changes by the treatment with SL (3′-SL & 6′-SL) compositions were quantitatively compared in two main organs (brain and hippocampus) associated with bran diseases. RNA was extracted by TRIzol agent (Invitrogen). cDNA was synthesized by using RNA, which has been extracted as above and quantified, and a reverse transcription system (Promega, USA). The expression patterns of PGC-1α and related genes were measured by using pre-designed primers and probes (Applied Biosystems; PGC-1α, Mm00447181_m1, […]) for the synthesized cDNA and analysis targets (Fndc5, PGC-1α, Erra, UCP1, BDNF, SOD2, and GPX1). […]

[1] = tested on: skin test model (HRM2) mice; test: Skin tests (UV irradiation, skin sensitivity, skin irritation, subcutaneous absorption) in skin test model mice; format: in vivo, mouse; conditions: oral 0.1 mg/kg/day, 10 weeks
Source text: In order to investigate the gene expression chages by body parts by the treatment with the SL (3′-SL & 6′-SL) compositions in skin test models, 6-week-old male skin test model (HRM2) mice (hairless appearance containing melanin) were randomly grouped into three different dietary treatment groups (8 animals per group, a total of 24 animals) below, and the diets (AIN-76A, Dyets, USA) were maintained for 10 weeks. The UV irradiation (black spot, wrinkle test), skin sensitivity test, skin irritation test, subcutaneous absorption test, or the like were conducted using a portable color-difference meter (CR-10, Minolta, Japan): • Control group: Group fed with a normal diet (8 animals) • 3′-SL administration group: Models treated with 3′-sialyllactose (3′-SL, Sigma) (oral administration of 0.1 mg per kg of mouse weight per day) in addition to the normal diet group (8 animals) • 6′-SL administration group: Models treated with 6′-sialyllactose (6′-SL, Sigma) (oral administration of 0.1 mg per kg of mouse weight per day) in addition to the normal diet group (8 animals)

[2] = tested on: mouse aortic smooth muscle cells (MASMs); test: Mitochondrial superoxide production (MitoSOX Red) in MASMs of aging stimulation model mice; format: cell-based; conditions: MASMs from aging stimulation model mice; SL added to culture liquid
Procedure: For the measurement of mitochondrial superoxide production, mitochondrial ROS was measured using MitoSOX Red (mitochondrial superoxide fluorescent marker). MASMs were extracted, and incubated with MitoSOX (4 μM) in the dark room at 37° C. for 20 minutes. The MitoSOX fluorescence was quantified by the cell fluorescence intensity read using a fluorescent plate reader (480 nm excitation/580 nm emission) (FIG. 17b).
In FIGS. 17a and 17b, MASMs were extracted from the aging stimulation model mouse control group, and the SL (3′-SL & 6′-SL) compositions were added to the culture liquid to conduct comparison.
FIGS. 17a and 17b show the measurement results of intercellular H2O2 (ROS values) (FIG. 17a) and the measurement results of mitochondrial superoxide production (FIG. 17b).

telomerase = test: Telomerase activity (TRAP) in vitro, MASMs of arteriosclerosis models; format: cell-based, mouse; conditions: MASMs of ApoE−/− control group, cultured 1 day with SL
Procedure: In FIG. 20, the telomerase activity was measured using TRAP protocol (Wright et al., 1995). In summary, cell pellets were lysed in CHAPS lysis solvent (containing ribonuclease inhibitor), followed by incubation at 4° C. for 30 minutes. Cell extracts ([…]) were TRAPeze reaction mix (telomerase substrate (TS) primer, fluorescent-labeled RP (reverse) primer, control standard template, and sulforhodamine-labeled standard K2 primer). The TS primer was elongated at 30° C. for 30 minutes, and then PCR was performed. The fluorescence of the thus obtained TRAP product was measured using a fluorescent plate reader to quantify telomerase activity. Relative telomerase activity was normalized by the ratio of native […] to sulforhodamine (internal control standard), expressed as a percentage. Fluorescein (M0250) was purchased from Marker Gene Technologies, Inc. H2-dichlorofluorescin diacetate (DCFDA) was purchased from Molecular Probes. MitoSOX™ Red, MitoTracker Green FM, and MitoTracker® Orange CMTMRos (MTO) were purchased from Invitrogen. 10,000× SYBR® Gold dye was purchased from Molecular Probes, Inc. Nuclear/Cytosol fractionation kit (K266-100) was purchased from BioVision. TRAPeze® XL telomerase detection kit (S7707) was purchased from MILLIPORE. Telomere PNA FISH Kit/Cy3 (K5326) was purchased from Dako. […]

Row | Compound | expression levels of PGC-1α and related genes vs SL non-administration (epilepsy/convulsion brain disease model) group (PGC-1α and related genes) | skin state in UV irradiation (black spot, wrinkle test), skin sensitivity, skin irritation, subcutaneous absorption tests vs control [1] | mitochondrial superoxide production [2] | telomerase activity in MASMs (in vitro) (telomerase)
1 | CC(=O)N[C@H]1[C@H]([C@H](O)[C@H](O)CO)O[C@@](O[C@H]2[C@@H](O)[C@@H](CO)O[C@@H](O[C@H]3[C@H](O)[C@@H](O)C(O)O[C@@H]3CO)[C@@H]2O)(C(=O)O)C[C@@H]1O (stereo partly drawn) [3′-SL, α-NeuNAc-(2→3)-β-D-Gal-(1→4)-D-Glc] | relatively low compared with 6′-SL | much improved skin | inhibited the mitochondrial superoxide production | increased telomerase activity
2 | CC(=O)N[C@H]1[C@H]([C@H](O)[C@H](O)CO)O[C@@](OC[C@H]2O[C@@H](O[C@H]3[C@H](O)[C@@H](O)[C@H](O)O[C@@H]3CO)[C@H](O)[C@@H](O)[C@H]2O)(C(=O)O)C[C@@H]1O [6′-SL, α-NeuNAc-(2→6)-β-D-Gal-(1→4)-D-Glc] | significant increases | much improved skin | inhibited the mitochondrial superoxide production | increased telomerase activity
